{"source": "patent US20230234920A1", "about": "“Azirine Containing Compounds as Anti-Angiogenesis Agents and a Process for the Preparation Thereof” (COUNCIL OF SCIENTIFIC & INDUSTRIAL RESEARCH, priority 2020, published 2023)", "key": {"[1]": {"test_system": "Endothelin-1 receptor", "assay": "Endothelin-1 induced contraction of isolated artery rings", "design": "species or system mice", "conditions": "for % contraction of aortic ring: ET-1 at 100 nM", "source_text": "FIG. 15 represents effect of Compound 1 on endothelin-1 concentration-response curves. (A) Concentration-response curve of endothelin-1 in isolated carotid arteries of vehicle-treated (Control) and Compound 1 treated mice. (B) Concentration-response curve of endothelin-1 in isolated carotid arteries of vehicle-treated (Control) and compound 3 along with compound 8 treated mice.\nTo test for the selectivity of the putative Endothelin-1 receptor, we applied endothelin-1 or Compound 1 in a concentration dependent manner to the […] to observe its contraction inhibition activity (FIG. 15)."}, "[2]": {"test_system": "HUVECs", "assay": "3D angiogenesis assay (cytodex beads in fibrin matrix)", "assay_type": "cell-based, human", "method": "(A) ECs were seeded on fibrinogen matrix and were treated with sunitinib and compound 1 at indicated concentrations. Post 5 days of incubation pictures were taken at 10× using inverted microscope. (B) Tube length was quantified using Leica QWin software and graph was plotted taking control (0.01% DMSO) treated cells. Data are represented as mean±SEM with significant difference from control at *p<0.05, **p<0.01 and ***p<0.001.\nAnti-angiogenic effect of Compound 1 was further validated by 3D angiogenesis assay (FIG. 5).\nEndothelial cells (ECs) were trypsinized and then coated on cytodex beads at the rate of 1500 cells per bead in 5% DMEM medium at 37° C. for 4 h by rotating it gently on IP rotor. Fibrinogen (2 mg/mL) and Aprotonin (40 U/μL) were added to the ECs coated beads and this was subsequently added to the 96 well plate pre-coated with […] (10 U/μL) and incubated for 15 min. Vehicle control in 2.5% DMEM media with different doses of Compound 1 (500 nM, 250 nM, 125 nM and 75 nM) were used to observe the anti-angiogenic effect of Compound 1 on 3D angiogenesis pattern. Post 3 days of incubation the results were observed and photographs were taken under inverted microscope (Olympus, Centre Valley, Pa., USA) and relative tubule lengths were measured using Leica Q-Win software version 3.5.1. (Leica Microsystems, Switzerland)."}, "[3]": {"test_system": "ECs", "assay": "Post tubule formation assay (disruption of preformed tubules)", "assay_type": "cell-based, human", "conditions": "treatment of already formed tubule", "method": "FIG. 3 represents effect of Compound 1 on post tubule formation by ECs. (A) ECs were incubated with indicated different concentrations of compound 1 along with VEGF (50 ng/mL) and sunitinib (50 nM) after 6 h of treatment to the already formed tubule. Post treatment photographs were taken at using an inverted microscope at 10×magnification."}, "[4]": {"test_system": "Src-kinase", "assay": "Immunoblotting of treated HUVECs, Src-kinase", "assay_type": "cell-based, human", "conditions": "250 nM, 6 h", "method": "(A) Serum-starved HUVECs were treated with control (0.1% DMSO), sunitinib and Compound 1 at a given concentrations and then incubated for 6 h. The expression level of phospho-VEGFR2 and GAPDH (housekeeping protein) was analyzed by immunoblotting. (B) Blots were quantified with Image-J software and the bar graphs represent the relative density of phospho-VEGFR2 normalized with GAPDH and the data are represented as mean±SEM with significant difference compared with control at *p<0.05. (D) Protein angiogenesis array showing up-regulation of anti-angiogenic protein and down-regulation of pro-angiogenic proteins on endothelial cell treated with Compound 1 at 260 nM.\nWhole cell lysates of endothelial cells at 6 h of treatment with Compound 1 (250 nM) and sunitinib (50 nM) were prepared using the RIPA-lysis buffer. Proteins were fractionated and resolved on 8% SDS-PAGE gels and transferred onto PVDF membranes (Millipore). After incubation in blocking buffer (5% BSA in 1×TBST) for 1 h the membranes were incubated with primary antibodies specific for p-Akt and p-Src. GAPDH was used as housekeeping and loading control. The blots were then incubated with specific HRP-conjugated secondary antibodies and bands were visualized using ECL (Millipore) on Image Quant (LAS4010) chemiluminescence detection system. The band intensities were quantified using My Image Analysis software."}, "[5]": {"test_system": "Balb/c mice", "assay": "Matrigel plug assay", "assay_type": "in vivo", "method": "(A) Post 7 days treatment of control (0.1% DMSO), sunitinib and Compound 1 at a given concentration, the mice was sacrificed and representative Matrigel plugs were excised and photographed. (B) Hemoglobin estimation was performed using drapkin's reagent and graph was plotted with data that are represented as mean±SEM from three independent experiments with significant difference from control at *p<0.05 using t-test analysis.\nCompound 1 ability to modulate neovascularization was evaluated by matrigel plug assay, using mouse-VEGF and bFGF (R&D systems, Minneapolis) as stimulus. 300 μL of matrigel (Corning Inc., Corning, N.Y., USA) were allowed to liquefy at 4° C., supplemented with either VEGF […], bFGF […] and heparin (10 mg/mL) as a control or with sunitinib […] as a positive control. All groups and test groups having similar condition along with Compound 1 (750 nM) were carefully mixed with pre-chilled pipette tips to prevent aeration and gelatinization. […] Matrigel plugs were excised after photographs were taken and angiogenic response was evaluated by spectrophotometric measurement of hemoglobin content using the Drabkin's method according to the manufacturer's protocol (Cat no. D5941-6VL; Sigma, St. Louis, Mo.). Absorbance was measured at 540 nm and hemoglobin concentration was calculated."}}}
{"smiles": "CCOC(=O)C1N=C1CCc1ccc(OC)cc1", "note": "(racemic) [Compound 1, Ethyl 3-(4-methoxyphenethyl)-2H-azirine-2-carboxylate]", "values": [{"measurement": "concentration initiating inhibition of ET-1 mediated contraction", "setting": "[1]", "value": 3, "unit": "nM"}, {"measurement": "% contraction of aortic ring", "setting": "[1]; 10 nM", "value": "about 35%"}, {"measurement": "% contraction of aortic ring", "setting": "[1]; 30 nM", "value": "~25", "unit": "%"}, {"measurement": "% contraction of aortic ring", "setting": "[1]; 50 nM", "value": "about 20%"}, {"measurement": "tubule formation", "setting": "[2]; 75 nM", "value": 100, "unit": "%"}, {"measurement": "tubulogenesis in 3D angiogenesis", "setting": "[2]; 500 nM, 250 nM, 125 nM and 75 nM vs control", "value": "tubulogenesis inhibitory effect"}, {"measurement": "disruption of preformed tubules", "setting": "[3]", "value": "could not be able to disrupt the preformed tubules"}, {"measurement": "Src-kinase expression", "setting": "[4]", "value": "marked reduction"}, {"measurement": "blood vessels formation through implanted Matrigel", "setting": "[5]; 750 nM", "value": "significant reduction in blood vessels formation"}, {"measurement": "hemoglobin concentration", "setting": "[5]; 750 nM in Matrigel", "value": "10 to 15", "unit": "µg/mL"}]}
